# Columns and labels:
# [1] = Percentage inhibition (100 uM) against protein tyrosine […]
# [2] = target: T1, Neutral alpha-glucosidase AB (Homo sapiens) (UniProt Q14697); assay: Percentage inhibition (100 uM) against Alpha glucosidase
# T1 sequence (whole entry): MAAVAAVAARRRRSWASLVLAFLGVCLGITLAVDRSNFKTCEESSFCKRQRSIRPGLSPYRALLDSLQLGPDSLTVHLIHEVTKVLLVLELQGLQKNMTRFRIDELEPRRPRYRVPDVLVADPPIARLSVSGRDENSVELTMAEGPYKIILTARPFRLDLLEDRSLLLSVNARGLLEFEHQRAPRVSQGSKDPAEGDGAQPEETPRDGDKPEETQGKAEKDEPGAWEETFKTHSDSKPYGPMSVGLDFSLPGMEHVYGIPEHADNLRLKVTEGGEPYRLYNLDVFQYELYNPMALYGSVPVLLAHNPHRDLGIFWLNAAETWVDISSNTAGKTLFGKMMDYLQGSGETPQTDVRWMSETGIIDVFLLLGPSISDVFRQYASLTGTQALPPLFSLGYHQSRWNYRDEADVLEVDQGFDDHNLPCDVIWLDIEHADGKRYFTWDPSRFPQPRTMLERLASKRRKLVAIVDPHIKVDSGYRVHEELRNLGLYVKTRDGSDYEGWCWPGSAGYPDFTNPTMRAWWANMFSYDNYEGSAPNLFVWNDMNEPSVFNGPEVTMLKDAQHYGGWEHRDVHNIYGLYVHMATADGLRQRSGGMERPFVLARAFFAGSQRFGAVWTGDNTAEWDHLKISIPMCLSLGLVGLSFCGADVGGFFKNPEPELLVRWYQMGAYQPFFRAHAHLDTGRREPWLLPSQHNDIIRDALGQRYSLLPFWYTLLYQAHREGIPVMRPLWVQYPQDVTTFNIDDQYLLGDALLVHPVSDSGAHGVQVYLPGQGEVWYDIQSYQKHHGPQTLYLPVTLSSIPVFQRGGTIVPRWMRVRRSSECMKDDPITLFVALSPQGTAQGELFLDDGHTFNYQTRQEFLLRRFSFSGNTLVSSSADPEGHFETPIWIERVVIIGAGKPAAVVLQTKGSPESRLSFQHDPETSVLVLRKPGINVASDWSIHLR
Compound,inhibition [1] [%],inhibition [2] [%]
N#Cc1c(N2CCc3ccccc3C2)cc(-c2cccc3ccccc23)c2c1-c1ccccc1CC2,51.8,94.8
N#Cc1c(N2CCc3ccccc3C2)cc(-c2ccc(Cl)cc2)c2c1CCCCCC2,24.2,28.8
N#Cc1c(N2CCc3ccccc3C2)cc(-c2cccc3ccccc23)c2c1-c1ccccc1SC2,41.9,98.7
N#Cc1c(N2CCc3ccccc3C2)cc(-c2cccc3ccccc23)c2c1CCCC2,14.8,72.2
N#Cc1c(N2CCc3ccccc3C2)cc(-c2ccc(Cl)cc2)oc1=O,18.2,51.9
N#Cc1c(N2CCc3ccccc3C2)cc(-c2ccc(Cl)cc2)c2c1CCCC2,23.2,20.7
N#Cc1c(N2CCc3ccccc3C2)cc(-c2cccc3ccccc23)c2c1CCSC2,26.7,96.1
C[C@H]1O[C@H](O[C@H]2[C@H](O)[C@@H](O)[C@@H](O[C@H]3[C@H](O)[C@@H](O)C(O)O[C@@H]3CO)O[C@@H]2CO)[C@H](O)[C@@H](O)[C@@H]1N[C@H]1C=C(CO)[C@@H](O)[C@H](O)[C@H]1O (some centres not stated),,90
N#Cc1c(-c2ccc(C(F)(F)F)cc2)cc(-c2ccc3ccc4cccc5ccc2c3c45)cc1N1CCCC1,12.5,93.8
N#Cc1c(N2CCc3ccccc3C2)cc(-c2ccc(Br)cc2)oc1=O,25.1,59.7
N#Cc1c(N2CCc3ccccc3C2)cc(-c2ccc(Cl)cc2)c2c1CCCCC2,42.8,47.4
SODIUM ORTHOVANAD,77.6,

# Source: ChEMBL document CHEMBL1141999, “Biaryls and heterobiaryls as alpha-glucosidase and protein tyrosine phosphatase inhibitors” (Bioorg Med Chem Lett, 2005)
